From PubChem BioAssay AID1963854 (Molecular Pharmacology Branch, DTP, NCI, 2024)
pIC50: −log10 of the molar value.

Tested on: 186277-243-T-J2-PDC complex spheroid viability
Assay: Anticancer human tumor 186277-243-T-J2-PDC patient-derived colon adenocarcinoma cell line growth inhibition [POLQ]
Details: for pIC50: curve of first compound; for viability, T/C: stronger effect = lower value; active = viability on the fitted dose curve at most 10% of control; inactive = the rest
Method in brief: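 Growth inhibition in 3D: complex spheroids (tumor PDC, HUVEC, MSC) treated with POLQ inhibitor combinations; where Cmax unknown, highest tested concentration 10 microM, except SN-38 at 1 microM.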
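Also: spheroids exposed to compounds for seven days.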
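For viability, T/C in this document: 100% = DMSO vehicle control viability.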

CC(=O)O[C@H]1C(=O)[C@@]2(C)[C@H]([C@H](OC(=O)c3ccccc3)[C@]3(O)C[C@H](OC(=O)[C@H](O)[C@@H](NC(=O)c4ccccc4)c4ccccc4)C(C)=C1C3(C)C)[C@]1(OC(C)=O)CO[C@@H]1C[C@@H]2O + Nc1ccc(C#CCN(C(=O)Cc2ncc(C(F)(F)F)cc2C(F)(F)F)c2ccc(F)cc2)nn1
inactive: viability, T/C (second compound 0.0316 µM, first compound 0.00949 µM) 42.4% | viability, T/C (second compound 0.0316 µM, first compound 0.03 µM) 12.5% | viability, T/C (second compound 0.1 µM, first compound 0.00949 µM) 41.4% | viability, T/C (second compound 0.1 µM, first compound 0.03 µM) 10.8% | viability, T/C (second compound 0.316 µM, first compound 0.00949 µM) 41.7% | viability, T/C (second compound 0.316 µM, first compound 0.03 µM) 11.7% | viability, T/C (second compound 1 µM, first compound 0.00949 µM) 36.1% | viability, T/C (second compound 1 µM, first compound 0.03 µM) 13.4% | viability, T/C (second compound 3.16 µM, first compound 0.00949 µM) 28.4% | viability, T/C (second compound 3.16 µM, first compound 0.03 µM) 10.8% | viability, T/C (second compound 10 µM, first compound 0.00949 µM) 21.8%
> 8.02: pIC50 (second compound 0.0316 µM) | pIC50 (second compound 0.1 µM) | pIC50 (second compound 0.316 µM) | pIC50 (second compound 1 µM) | pIC50 (second compound 3.16 µM) | pIC50 (second compound 10 µM)
active: viability, T/C (second compound 0.0316 µM, first compound 0.0949 µM) 7.75% | viability, T/C (second compound 0.0316 µM, first compound 0.3 µM) 6.21% | viability, T/C (second compound 0.0316 µM, first compound 0.949 µM) 5.52% | viability, T/C (second compound 0.0316 µM, first compound 3 µM) 8.14% | viability, T/C (second compound 0.1 µM, first compound 0.0949 µM) 7.09% | viability, T/C (second compound 0.1 µM, first compound 0.3 µM) 5.96% | viability, T/C (second compound 0.1 µM, first compound 0.949 µM) 6.1% | viability, T/C (second compound 0.1 µM, first compound 3 µM) 5.64% | viability, T/C (second compound 0.316 µM, first compound 0.0949 µM) 7.17% | viability, T/C (second compound 0.316 µM, first compound 0.3 µM) 6.38% | viability, T/C (second compound 0.316 µM, first compound 0.949 µM) 5.86% | viability, T/C (second compound 0.316 µM, first compound 3 µM) 6.59% | viability, T/C (second compound 1 µM, first compound 0.0949 µM) 6.63% | viability, T/C (second compound 1 µM, first compound 0.3 µM) 5.56% | viability, T/C (second compound 1 µM, first compound 0.949 µM) 6.34% | viability, T/C (second compound 1 µM, first compound 3 µM) 5.24% | viability, T/C (second compound 3.16 µM, first compound 0.0949 µM) 7.02% | viability, T/C (second compound 3.16 µM, first compound 0.3 µM) 6.36% | viability, T/C (second compound 3.16 µM, first compound 0.949 µM) 6.4% | viability, T/C (second compound 3.16 µM, first compound 3 µM) 4.96% | viability, T/C (second compound 10 µM, first compound 0.03 µM) 8.01% | viability, T/C (second compound 10 µM, first compound 0.0949 µM) 6.35% | viability, T/C (second compound 10 µM, first compound 0.3 µM) 5.6% | viability, T/C (second compound 10 µM, first compound 0.949 µM) 7.72% | viability, T/C (second compound 10 µM, first compound 3 µM) 5.68%

C#Cc1c(F)ccc2cc(O)cc(-c3ncc4c(N5CC6CCC(C5)N6)nc(OCC56CCCN5CC(F)C6)nc4c3F)c12 (centres undefined) + Cc1cccc(N(C)C(=O)C2C(O)CCN2c2nc(C)cc(C(F)(F)F)c2C#N)c1
7.19: pIC50 (second compound 3.16 µM)
inactive: viability, T/C (second compound 0.0316 µM, first compound 0.0316 µM) 81.1% | viability, T/C (second compound 0.0316 µM, first compound 0.1 µM) 49.3% | viability, T/C (second compound 0.0316 µM, first compound 0.316 µM) 21.4% | viability, T/C (second compound 0.1 µM, first compound 0.0316 µM) 80.7% | viability, T/C (second compound 0.1 µM, first compound 0.1 µM) 53.5% | viability, T/C (second compound 0.1 µM, first compound 0.316 µM) 21.9% | viability, T/C (second compound 0.316 µM, first compound 0.0316 µM) 86.9% | viability, T/C (second compound 0.316 µM, first compound 0.1 µM) 41% | viability, T/C (second compound 0.316 µM, first compound 0.316 µM) 16.9% | viability, T/C (second compound 1 µM, first compound 0.0316 µM) 89.8% | viability, T/C (second compound 1 µM, first compound 0.1 µM) 43% | viability, T/C (second compound 1 µM, first compound 0.316 µM) 19.6% | viability, T/C (second compound 1 µM, first compound 1 µM) 11% | viability, T/C (second compound 3.16 µM, first compound 0.0316 µM) 80.6% | viability, T/C (second compound 3.16 µM, first compound 0.1 µM) 30.4% | viability, T/C (second compound 3.16 µM, first compound 0.316 µM) 11.1% | viability, T/C (second compound 10 µM, first compound 0.0316 µM) 51.6% | viability, T/C (second compound 10 µM, first compound 0.1 µM) 18.2%
7.01: pIC50 (second compound 0.0316 µM)
7.48: pIC50 (second compound 10 µM)
7.10: pIC50 (second compound 0.316 µM)
7.07: pIC50 (second compound 1 µM)
6.95: pIC50 (second compound 0.1 µM)
active: viability, T/C (second compound 0.0316 µM, first compound 1 µM) 8.81% | viability, T/C (second compound 0.0316 µM, first compound 3.16 µM) 6.82% | viability, T/C (second compound 0.0316 µM, first compound 10 µM) 4.22% | viability, T/C (second compound 0.1 µM, first compound 1 µM) 9.85% | viability, T/C (second compound 0.1 µM, first compound 3.16 µM) 6.56% | viability, T/C (second compound 0.1 µM, first compound 10 µM) 4.18% | viability, T/C (second compound 0.316 µM, first compound 1 µM) 8.42% | viability, T/C (second compound 0.316 µM, first compound 3.16 µM) 6.35% | viability, T/C (second compound 0.316 µM, first compound 10 µM) 5.85% | viability, T/C (second compound 1 µM, first compound 3.16 µM) 6.21% | viability, T/C (second compound 1 µM, first compound 10 µM) 4.34% | viability, T/C (second compound 3.16 µM, first compound 1 µM) 6.02% | viability, T/C (second compound 3.16 µM, first compound 3.16 µM) 6.21% | viability, T/C (second compound 3.16 µM, first compound 10 µM) 5.42% | viability, T/C (second compound 10 µM, first compound 0.316 µM) 11% | viability, T/C (second compound 10 µM, first compound 1 µM) 5.4% | viability, T/C (second compound 10 µM, first compound 3.16 µM) 4.3% | viability, T/C (second compound 10 µM, first compound 10 µM) 3.05%
